{"source": "ChEMBL document CHEMBL5528040", "about": "“Design and Synthesis of Novel 3-Nitro-1H-1,2,4-triazole-1,2,3-triazole-1,4-disubstituted Analogs as Promising Antitrypanosomatid Agents: Evaluation of In Vitro Activity against Chagas Disease and Leishmaniasis” (J Med Chem, 2024)", "assay": "Mutagenicity in Salmonella typhimurium TA98 assessed as mutagenic index ratio at 500 ug per plate incubated for 90 mins by AMES test", "format": "toxicity, Salmonella enterica subsp. enterica serovar Typhimurium", "conditions": "in vivo, 1.5 h, dose 500 µg"}
{"smiles": "O=[N+]([O-])c1ncn(Cc2cn(-c3ccc(OC(F)(F)F)cc3)nn2)n1", "values": [{"measurement": "Ratio", "value": 0.9}]}
